{"source": "patent US5081149A", "about": "“Antihepatopathic method” (Senju Pharmaceutical Co., Ltd., priority 1989, dated 1992)", "key": {"[1]": {"test_system": "acetaminophen-induced hepatopathy", "test": "Effects of DCE-GS on acetaminophen-induced hepatopathy in rats", "format": "in vivo, SD-strain male rats", "conditions": "for LDH (lactate dehydrogenase) / s-GOT / s-GPT / s-TG (serum triglyceride): 1 h before acetaminophen 300 mg/kg i.p., blood at 24 h, mean ± standard error (n = 6 to 8)", "experimental": "After 24 hours of fasting, SD-strain male rats weighing 180 g were orally given 200, 400 or 800 mg/kg of S-(α, β-dicarboxyethyl)glutathione (hereinafter referred to as \"DCE-GS\" for short). A control group was given physiological saline. An hour later, 300 mg/kg acetaminophen was intraperitoneally administered to each rat for causing hepatopathy. Twenty-four hours after acetaminophen administration,blood samples were collected from the rats under pentobarbital anesthesia via the abdominal aorta and subjected to blood biochemistry tests."}, "blood coagulation": {"test_system": "blood coagulation", "conditions": "Kokai No. 63-8337 and Japanese Patent Applications Nos. 1-79956 and 1-183484; cited from earlier work"}, "platelet aggregation": {"test_system": "platelet aggregation", "conditions": "Kokai No. 63-8337 and Japanese Patent Applications Nos. 1-79956 and 1-183484; cited from earlier work"}, "[2]": {"conditions": "Kokai No. 63-8337 and Japanese Patent Applications Nos. 1-79956 and 1-183484; cited from earlier work"}, "[3]": {"conditions": "400 mg/kg oral, *p < 0.05 vs saline"}, "[4]": {"conditions": "800 mg/kg oral, *p < 0.05 vs saline"}}}
{"smiles": "N[C@@H](CCC(=O)N[C@@H](CSC(CC(=O)O)C(=O)O)C(=O)NCC(=O)O)C(=O)O", "note": "(stereo partly drawn) [DCE-GS, S-(α, β-Dicarboxyethyl)glutathione]", "values": [{"measurement": "LDH (lactate dehydrogenase)", "setting": "[1]; 200 mg/kg oral", "value": "6029 ± 485", "unit": "Wrobrewski units"}, {"measurement": "s-GOT", "setting": "[1]; 200 mg/kg oral", "value": "1221 ± 179", "unit": "IU/liter"}, {"measurement": "s-GPT", "setting": "[1]; 200 mg/kg oral", "value": "499 ± 66", "unit": "IU/liter"}, {"measurement": "s-TG (serum triglyceride)", "setting": "[1]; 200 mg/kg oral", "value": "28.8 ± 5.0", "unit": "mg/dL"}, {"measurement": "s-TG (serum triglyceride)", "setting": "[1]; 400 mg/kg oral", "value": "36.1 ± 7.6", "unit": "mg/dL"}, {"measurement": "LDH (lactate dehydrogenase)", "setting": "[1]; [3]", "value": "4873 ± 973", "unit": "Wrobrewski units"}, {"measurement": "s-GOT", "setting": "[1]; [3]", "value": "677 ± 219", "unit": "IU/liter"}, {"measurement": "s-GPT", "setting": "[1]; [3]", "value": "262 ± 89", "unit": "IU/liter"}, {"measurement": "LDH (lactate dehydrogenase)", "setting": "[1]; [4]", "value": "3722 ± 595", "unit": "Wrobrewski units"}, {"measurement": "s-GOT", "setting": "[1]; [4]", "value": "438 ± 131", "unit": "IU/liter"}, {"measurement": "s-GPT", "setting": "[1]; [4]", "value": "133 ± 39", "unit": "IU/liter"}, {"measurement": "s-TG (serum triglyceride)", "setting": "[1]; [4]", "value": "53.9 ± 10.4", "unit": "mg/dL"}, {"measurement": "effect on acetaminophen-induced changes in s-GOT, s-GPT, s-LDH and s-TG", "setting": "[1]; 200, 400 or 800 mg/kg oral", "value": "dose-dependently suppressed the increases in s-GOT, s-GPT and s-LDH as well as the decrease in s-TG"}, {"measurement": "blood coagulation inhibiting activity", "setting": "blood coagulation", "value": "blood coagulation inhibiting"}, {"measurement": "platelet aggregation inhibiting activity", "setting": "platelet aggregation", "value": "platelet aggregation inhibiting"}, {"measurement": "antiinflammatory and/or antiallergic activity", "setting": "[2]", "value": "antiinflammatory and/or antiallergic activity"}]}
